Values joined by “and” are separate entries in the source; they are usually repeats but may differ in a detail not shown here. Equal entries are not always repeated.
Test system: CA1 region of hippocampal organotypic cultures
Test: Kainic acid-induced neuronal cell death (experimental status epilepticus), propidium iodide uptake in hippocampal organotypic cultures
Type: cell-based, rat
Experimental: A seizure-induced neuronal cell death in vitro experimental model of status epilepticus was provided as follows. The neuroprotective potential of (R)-3-hydroxybutyrate sodium salt (BHB) (0.3 mM, 1 mM and 3 mM) was assessed by propidium iodide uptake into hippocampal organotypic cultures administered 1 μM KA for 24 h to induce experimental status epilepticus. Neuronal cell death is already observed at 24 h subsequent to KA-application therefore, it was of no value to administer to the cultures at this time-point. Test compound was, therefore, added to the cultures before significant neuronal cell death occurred.
Hippocampal organotypic slice cultures were prepared according to the Gähwiler roller-tube method (Gähwiler B H (1981) and Gähwiler et al (1997)) from nine rat pups aged between […].
Rat pups were killed by cervical dislocation, their brains rapidly removed and placed in a Petri dish. The meninges were removed from the caudal section of the cortex and then the brain was located with the ventral surface uppermost. Two transverse cuts were made, the first, at the level of the cerebellum to remove the brainstem, and the second, at the level of the optic chiasm to remove the forebrain. The cerebellum, midbrain and hindbrain were lifted upwards from the surrounding cortical tissue leaving one hippocampus embedded within each cortical hemisphere. An incision was made down the midline to separate the two cortical hemispheres. To separate the hippocampus from the surrounding cortical tissue three incisions were made around the hippocampus and then it was rolled out from the underlying tissue. The isolated hippocampus was then placed in a drop of ice-cold Gey's balanced salt solution containing 0.5% D-glucose (GBSS+G). The procedure was then repeated to isolate the remaining hippocampus. The whole procedure was performed using a Swift dissecting microscope and took between 10-15 mins thereby minimizing tissue deterioration.
The hippocampi were transferred to a Mcllwain tissue chopper and sectioned into a series of 400 μm thick slices. After sectioning, the hippocampi were placed in ice-cold GBSS+G and the slices gently teased apart. The slices were washed once in GBSS+G and the integrity of the slices checked under a higher magnification. If the slices had any tears, an opaque appearance or the cell body layers were not easily visible, they were discarded. A healthy slice has a yellow-brown colouration without any blackening in the cell body regions.
To adhere the hippocampal slice to a coverslip (Agar Scientific, UK), 20 μl of chicken plasma was placed in the middle of the coverslip followed by a hippocampal slice. The plasma was spread thinly over the surface of the coverslip, to ensure the slice was well coated. Then, 30 μl of thrombin (75 units/ml activity) was placed over the slice and mixed thoroughly with the chicken plasma. The plasma-thrombin mixture was left for approximately 60 s until a clot of jelly-like consistency had formed. The coverslip was then placed in a test-tube (Nunclon, UK) which contained 750 μl of pre-warmed culture media (37° C.). Culture media consisted of 50% basal media Earles, 25% Hank's balanced salt solution, 25% heat inactivated horse serum, […] L-glutamine and 0.5% D-glucose. The test tubes were sealed with a screw top lid and placed in a custom made roller-drum (Medical School Workshop, University of Nottingham) at an angle of 5°, rotating at 10 revolutions per hour in a dry incubator at 37° C.
After 48 h in vitro, 500 μl of media was removed and the cultures were incubated in culture media containing a combination of anti-mitotics, which consisted of 5-fluorodeoxyuridine, cytosine-β-D-arabino-furanoside (ARA-C) and uridine each at a concentration of 1 μM. After a further 24 h, 500 μl of media was removed and replaced with 500 μl of new culture media containing no anti-mitotics. […]

| Structure (SMILES) | percentage propidium iodide uptake (mean) (KTX0101 0.3 mM added 30 mins after KA 1 μM, assessed at 24 h, n=12) | percentage propidium iodide uptake (mean) (KTX0101 0.3 mM for 7 d following KA 1 μM for 24 h, assessed at 7 d, n=12) | percentage propidium iodide uptake (mean) (KTX0101 0.3 mM for 7 d following KA 1 μM for 24 h, assessed at 7 d, n=12, listed as BHB) | percentage propidium iodide uptake (mean) (KTX0101 1.0 mM added 30 mins after KA 1 μM, assessed at 24 h, n=13) | percentage propidium iodide uptake (mean) (KTX0101 1.0 mM for 7 d following KA 1 μM for 24 h, assessed at 7 d, n=13) | percentage propidium iodide uptake (mean) (KTX0101 1.0 mM for 7 d following KA 1 μM for 24 h, assessed at 7 d, n=13, listed as BHB) | percentage propidium iodide uptake (mean) (KTX0101 3.0 mM added 30 mins after KA 1 μM, assessed at 24 h, n=13) | percentage propidium iodide uptake (mean) (KTX0101 3.0 mM for 7 d following KA 1 μM for 24 h, assessed at 7 d, n=13) | percentage propidium iodide uptake (mean) (KTX0101 3.0 mM for 7 d following KA 1 μM for 24 h, assessed at 7 d, n=13, listed as BHB) | percentage propidium iodide uptake (mean) (KA 1 μM alone for 24 h, then washout, assessed at 7 d, n=12, control cultures 1.81) | percentage propidium iodide uptake (mean) (KA 1 μM alone for 24 h, assessed at 24 h, n=12, control cultures 1.68) |
| --- | --- | --- | --- | --- | --- | --- | --- | --- | --- | --- | --- |
| C[C@@H](O)CC(=O)[O-].[Na+] [KTX0101, sodium salt of (R)-3-hydroxybutyrate] | 6.48% | 1.54% | 1.54±0.33% and 1.54% | 4.89% | 1.05% | 1.05±0.29% and 1.05% | 4.72% | 1.25% | 1.25±0.21% and 1.25% | – | – |
| C=C(C)[C@H]1CN[C@H](C(=O)O)[C@H]1CC(=O)O [KA, kainic acid, reference compound] | – | – | – | – | – | – | – | – | – | 6.97±2.03% and 6.97% | 8.89±1.78% and 8.89% |
